The values that follow come from US12110293B2, “Substituted triazolo quinoxaline derivatives” (GRÜNENTHAL GMBH, priority 2018, dated 2024).

This experiment concerns the target T1, glucocorticoid receptor (Homo sapiens, UniProt P04150).
T1 construct: expressed in transfected cells
T1 sequence (P04150 524-758 limits assumed): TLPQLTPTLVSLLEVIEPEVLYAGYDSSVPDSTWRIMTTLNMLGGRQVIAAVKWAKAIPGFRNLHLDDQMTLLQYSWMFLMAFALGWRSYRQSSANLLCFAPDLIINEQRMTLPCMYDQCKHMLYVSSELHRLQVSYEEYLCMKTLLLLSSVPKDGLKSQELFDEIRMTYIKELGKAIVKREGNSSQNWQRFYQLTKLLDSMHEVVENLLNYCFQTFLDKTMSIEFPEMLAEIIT
Kind of experiment: Agonistic mode of action on the glucocorticoid receptor (CHO-Gal4/GR luciferase reporter cell line). The settings on record: range class observed in the agonistic assay or the antagonistic assay (CHO-Gal4/GR reporter cells); table does not say which mode applies per example. The class given is cell-based. An outline of the steps: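 CHO cells stably carrying GAL4 DBD–GR ligand-binding-domain fusion and GAL4-UAS firefly luciferase reporter, 5000 cells/well grown 24 h, then compounds added in Opti-MEM at 8 half-log concentrations from 10 μM to 0.003 μM (0.5% DMSO), quadruplicates. Agonist-induced luminescence read on FLIPR Tetra; EC50 calculated.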

Bounds are passed on as bounds.

For `Cc1cc2c(c(F)c1-c1cc(F)cc3c1ccn3C)-n1c(C)nnc1C(C)(C)N2` [Example 520, 9-Fluoro-8-(6-fluoro-1-methyl-1H-indol-4-yl)-1,4,4,7-tetramethyl-5H-[1,2,4]triazolo[4,3-a]quinoxaline], the IC50 or EC50 (agonist or antagonist mode not specified) was in the range of 100 to 1000 nM.
With `Cc1nnc2n1-c1c(cc(F)c(-c3cccc4c3ccn4S(=O)(=O)C(C)C)c1F)NC2(C)C` [Example 200, 7,9-Difluoro-8-[1-(isopropylsulfonyl)-1H-indol-4-yl]-1,4,4-trimethyl-5H-[1,2,4]triazolo[4,3-a]quinoxaline] the figure was 1000 to 15000 nM; with `Cc1c(-c2cccc3c(C)c[nH]c23)c(OC(F)(F)F)cc2c1-n1c(C)nnc1C(C)(C)N2` [Example 405, 1,4,4,9-Tetramethyl-8-(3-methyl-1H-indol-7-yl)-7-(trifluoromethyloxy)-5H-[1,2,4]triazolo[4,3-a]quinoxaline], 100 to 1000 nM.
Consider `CCc1c(-c2cccc3c2cnn3S(C)(=O)=O)c(F)cc2c1-n1c(C)nnc1C(C)(C)N2` [Example 51, 9-Ethyl-7-fluoro-1,4,4-trimethyl-8-(1-methylsulfonyl-1H-indazol-4-yl)-5H-[1,2,4]triazolo[4,3-a]quinoxaline], for which the IC50 or EC50 (agonist or antagonist mode not specified) lay within 100 to 1000 nM.
Take `COCCn1ccc2c(-c3c(F)cc4c(c3OC)-n3c(C)nnc3C(C)(C)N4)cc(F)cc21` [Example 351, 7-Fluoro-8-[6-fluoro-1-(2-methoxy-ethyl)-1H-indol-4-yl]-9-methoxy-1,4,4-trimethyl-5H-[1,2,4]triazolo [4,3-a]quinoxaline]: the IC50 or EC50 (agonist or antagonist mode not specified) is less than 100 nM.
Molecule `Cc1c(-c2cc(F)cc3c2cnn3S(C)(=O)=O)c(F)cc2c1-n1c(C)nnc1C(C)(C)N2` [Example 279, 7-Fluoro-8-(6-fluoro-1-methylsulfonyl-1H-indazol-4-yl)-1,4,4,9-tetramethyl-5H-[1,2,4]triazolo[4,3-a]quinoxaline] registered an IC50 or EC50 (agonist or antagonist mode not specified) of less than 100 nM.
Turning to `COc1c(-c2cc(F)cc3c2ccn3S(C)(=O)=O)c(F)cc2c1-n1c(C)nnc1C(C)(C)N2` [Example 250, 7-Fluoro-8-(6-fluoro-1-methylsulfonyl-1H-indol-4-yl)-9-methoxy-1,4,4-trimethyl-5H-[1,2,4]triazolo[4,3-a]quinoxaline], the IC50 or EC50 (agonist or antagonist mode not specified) is less than 100 nM.
Next, `CCc1nnc2n1-c1c(cc(F)c(-c3cccc4c3ccn4CCOC)c1C)NC2(C)C` [Example 299, 1-Ethyl-7-fluoro-8-[1-(2-methoxy-ethyl)-1H-indol-4-yl]-4,4,9-trimethyl-5H-[1,2,4]triazolo[4,3-a]quinoxaline]: 1000 to 15000 nM; `Cc1nnc2n1-c1c(cc(F)c(-c3cc(F)cc4[nH]c(C#N)cc34)c1F)NC2(C)C` [Example 6, 4-(7,9-difluoro-1,4,4-trimethyl-4,5-dihydro-[1,2,4]triazolo[4,3-a]quinoxalin-8-yl)-6-fluoro-1H-indole-2-carbonitrile]: 1000 to 15000 nM.
The molecule `Cc1cc(-c2c(F)cc3c(c2C)-n2c(C)nnc2C(C)(C)N3)c2ccn(S(C)(=O)=O)c2c1` [Example 493, 7-Fluoro-1,4,4,9-tetramethyl-8-(6-methyl-1-methylsulfonyl-1H-indol-4-yl)-5H-[1,2,4]triazolo[4,3-a] quinoxaline] showed an IC50 or EC50 (agonist or antagonist mode not specified) of less than 100 nM.
With `Cc1c(-c2cc(F)cc3c(CC(F)(F)F)c[nH]c23)c(F)cc2c1-n1c(C)nnc1C(C)(C)N2` [Example 23, 7-fluoro-8-(5-fluoro-3-(2,2,2-trifluoroethyl)-1H-indol-7-yl)-1,4,4,9-tetramethyl-4,5-dihydro-[1,2,4]triazolo[4,3-a]quinoxaline] the figure was less than 100 nM; with `CCc1c(-c2cc(F)cc3c2cnn3S(C)(=O)=O)c(F)cc2c1-n1c(C)nnc1C(C)(C)N2` [Example 52, 9-Ethyl-7-fluoro-8-(6-fluoro-1-methylsulfonyl-1H-indazol-4-yl)-1,4,4-trimethyl-5H-[1,2,4]triazolo[4,3-a]quinoxaline], less than 100 nM.
Next, `CCc1c(-c2cc(F)cc3c2ccn3CCO)c(F)cc2c1-n1c(C)nnc1C(C)(C)N2` [Example 44, 2-(4-(9-ethyl-7-fluoro-1,4,4-trimethyl-4,5-dihydro-[1,2,4]triazolo[4,3-a]quinoxalin-8-yl)-6-fluoro-1H-indol-1-yl)ethanol]: 100 to 1000 nM; `Cc1nnc2n1-c1c(cc(F)c(-c3cccc4c(C(F)(F)F)c[nH]c34)c1F)NC2(C)C` [Example 10, 7,9-difluoro-1,4,4-trimethyl-8-(3-(trifluoromethyl)-1H-indol-7-yl)-4,5-dihydro-[1,2,4]triazolo[4,3-a]quinoxaline]: 100 to 1000 nM.
As for `Cc1nnc2n1-c1c(cc(F)c(-c3cccc4c3ccn4CCNC(=O)C(C)(F)F)c1F)NC2(C)C` [Example 229, N-[2-[4-(7,9-Difluoro-1,4,4-trimethyl-5H-[1,2,4]triazolo[4,3-a]quinoxalin-8-yl)-1H-indol-1-yl]-ethyl]-2,2-difluoro-propionamide], the IC50 or EC50 (agonist or antagonist mode not specified) fell in the range of 1000 to 15000 nM.
Next, `COc1c(-c2cccc3[nH]ncc23)c(F)cc2c1-n1c(C)nnc1C(C)(C)N2` [Example 490, 7-Fluoro-8-(1H-indazol-4-yl)-9-methoxy-1,4,4-trimethyl-5H-[1,2,4]triazolo[4,3-a]quinoxaline]: 100 to 1000 nM; `Cc1nnc2n1-c1c(cc(F)c(-c3cc(F)cc4c3cnn4S(C)(=O)=O)c1C(F)(F)F)NC2(C)C` [Example 454, 7-Fluoro-8-(6-fluoro-1-methylsulfonyl-1H-indazol-4-yl)-1,4,4-trimethyl-9-(trifluoromethyl)-5H-[1,2,4]triazolo[4,3-a]quinoxaline]: 100 to 1000 nM; `CC(=O)n1ccc2c(-c3c(F)cc4c(c3F)-n3c(C)nnc3C(C)(C)N4)cc(F)cc21` [Example 4, 1-(4-(7,9-difluoro-1,4,4-trimethyl-4,5-dihydro-[1,2,4]triazolo[4,3-a]quinoxalin-8-yl)-6-fluoro-1H-indol-1-yl)ethanone]: less than 100 nM.
Molecule `Cc1nnc2n1-c1c(cc(F)c(-c3cccc4c3cnn4S(C)(=O)=O)c1C(F)(F)F)NC2(C)C` [Example 446, 7-fluoro-1,4,4-trimethyl-8-(1-(methylsulfonyl)-1H-indazol-4-yl)-9-(trifluoromethyl)-4,5-dihydro-[1,2,4]triazolo[4,3-a]quinoxaline] registered an IC50 or EC50 (agonist or antagonist mode not specified) of 100 to 1000 nM.
Next, `COCCn1ccc2c(-c3c(F)cc4c(c3C(F)F)-n3c(C)nnc3C(C)(C)N4)cccc21` [Example 292, 9-(Difluoro-methyl)-7-fluoro-8-[1-(2-methoxy-ethyl)-1H-indol-4-yl]-1,4,4-trimethyl-5H-[1,2,4]triazolo[4,3-a]quinoxaline]: 100 to 1000 nM; `CCc1nnc2n1-c1c(cc(F)c(-c3cccc4c(C#N)c[nH]c34)c1F)NC2(C)C` [Example 12, 7-(T-ethyl-7,9-difluoro-4,4-dimethyl-4,5-dihydro-[1,2,4]triazolo[4,3-a]quinoxalin-8-yl)-1H-indole-3-carbonitrile]: 1000 to 15000 nM.
